Measurements as given in patent US9944602B2, “Piperidinone herbicides” (E. I. DU PONT DE NEMOURS AND COMPANY, priority 2014, dated 2018).

How the values were obtained:
Type in all cases: in vivo
[1] = tested on: barnyardgrass (Echinochloa crus-galli); test: Test A preemergence barnyardgrass; conditions: 0 to 100 scale, 0 no effect, 100 complete control
Summary of the method: (§1)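 Plants were grown in a blend of loam soil and sand. For preemergence testing the soil was sprayed directly after seeding, while postemergence testing used seedlings 2–10 cm high at one to two leaves; all treatments were rated visually for injury (0–100) after ~10 d.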

[2] = tested on: kochia (Kochia scoparia); test: Test A preemergence kochia; conditions: 0 to 100 scale, 0 no effect, 100 complete control
Summary of the method: as §1

[3] = tested on: ragweed (common ragweed, Ambrosia elatior); test: Test A preemergence ragweed; conditions: 0 to 100 scale, 0 no effect, 100 complete control
Summary of the method: as §1

[4] = tested on: ryegrass, Italian (Italian ryegrass, Lolium multiflorum); test: Test A preemergence ryegrass, Italian; conditions: 0 to 100 scale, 0 no effect, 100 complete control
Summary of the method: as §1

[5] = tested on: foxtail, giant (giant foxtail, Setaria faberii); test: Test A preemergence foxtail, giant; conditions: 0 to 100 scale, 0 no effect, 100 complete control
Summary of the method: as §1

[6] = tested on: pigweed (Amaranthus retroflexus); test: Test A preemergence pigweed; conditions: 0 to 100 scale, 0 no effect, 100 complete control
Summary of the method: as §1

[7] = tested on: barnyardgrass (Echinochloa crus-galli); test: Test A postemergence barnyardgrass; conditions: 0 to 100 scale, 0 is no effect, 100 is complete control
Summary of the method: as §1

[8] = tested on: kochia (Kochia scoparia); test: Test A postemergence kochia; conditions: 0 to 100 scale, 0 is no effect, 100 is complete control
Summary of the method: as §1

[9] = tested on: ragweed (common ragweed, Ambrosia elatior); test: Test A postemergence ragweed; conditions: 0 to 100 scale, 0 is no effect, 100 is complete control
Summary of the method: as §1

[10] = tested on: ryegrass, Italian (Italian ryegrass, Lolium multiflorum); test: Test A postemergence ryegrass, Italian; conditions: 0 to 100 scale, 0 is no effect, 100 is complete control
Summary of the method: as §1

[11] = tested on: foxtail, giant (giant foxtail, Setaria faberii); test: Test A postemergence foxtail, giant; conditions: 0 to 100 scale, 0 is no effect, 100 is complete control
Summary of the method: as §1

[12] = tested on: pigweed (Amaranthus retroflexus); test: Test A postemergence pigweed; conditions: 0 to 100 scale, 0 is no effect, 100 is complete control
Summary of the method: as §1

[13] = tested on: wheat (Triticum aestivum); test: Test A postemergence wheat; conditions: 0 to 100 scale, 0 is no effect, 100 is complete control
Summary of the method: as §1

[14] = tested on: corn (Zea mays); test: Test A postemergence corn; conditions: 0 to 100 scale, 0 is no effect, 100 is complete control
Summary of the method: as §1

[15] = tested on: blackgrass (Alopecurus myosuroides); test: Test A postemergence blackgrass; conditions: 0 to 100 scale, 0 is no effect, 100 is complete control
Summary of the method: as §1

[16] = tested on: galium (catchweed bedstraw, Galium aparine); test: Test A postemergence galium; conditions: 0 to 100 scale, 0 is no effect, 100 is complete control
Summary of the method: as §1

[17] = tested on: rice (Oryza sativa); test: Test B flooded paddy test rice; conditions: Table B, Flood, 500 g ai/ha, scale 0 to 100
Summary of the method: (§2)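 2-leaf plants; flood 3 cm over soil; cpd into paddy water; water depth kept; greenhouse 13–15 d; visual rating vs controls.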

[18] = tested on: sedge, umbrella (small-flower umbrella sedge, Cyperus difformis); test: Test B flooded paddy test sedge, umbrella; conditions: Table B, Flood, 500 g ai/ha, scale 0 to 100
Summary of the method: as §2

[19] = tested on: ducksalad (Heteranthera limosa); test: Test B flooded paddy test ducksalad; conditions: Table B, Flood, 500 g ai/ha, scale 0 to 100
Summary of the method: as §2

[20] = tested on: barnyardgrass (Echinochloa crus-galli); test: Test B flooded paddy test barnyardgrass; conditions: Table B, Flood, 500 g ai/ha, scale 0 to 100
Summary of the method: as §2

`O=C1NCCC(c2cccc(C(F)(F)F)c2)C1C(=O)Nc1ccccc1Cl` (racemic) [Compound 17] was tested, and the “Barnyardgrass plant response rating” value ([1]; 125 g ai/ha) was 50, the “Barnyardgrass plant response rating” value ([1]; 500 g ai/ha) was 80 and the “Kochia plant response rating” value ([2]; 125 g ai/ha) was 30. The “Kochia plant response rating” value ([2]; 500 g ai/ha) was 30, the “Ragweed plant response rating” value ([3]; 125 g ai/ha) was 0 and the “Ragweed plant response rating” value ([3]; 500 g ai/ha) was 0. For the same compound, the “Ryegrass, Italian plant response rating” value ([4]; 125 g ai/ha) was 20, the “Ryegrass, Italian plant response rating” value ([4]; 500 g ai/ha) was 40 and the “Foxtail, Giant plant response rating” value ([5]; 125 g ai/ha) was 80. The “Foxtail, Giant plant response rating” value ([5]; 500 g ai/ha) was 90, the “Pigweed plant response rating” value ([6]; 125 g ai/ha) was 0 and the “Pigweed plant response rating” value ([6]; 500 g ai/ha) was 0. For the same compound, the “Plant response rating, Barnyardgrass” value ([7]; 125 g ai/ha) was 80, the “Plant response rating, Barnyardgrass” value ([7]; 500 g ai/ha) was 80 and the “Plant response rating, Kochia” value ([8]; 125 g ai/ha) was 0. The “Plant response rating, Kochia” value ([8]; 500 g ai/ha) was 20, the “Plant response rating, Ragweed” value ([9]; 125 g ai/ha) was 0 and the “Plant response rating, Ragweed” value ([9]; 500 g ai/ha) was 0. The “Plant response rating, Ryegrass, Italian” value ([10]; 125 g ai/ha) was 0, the “Plant response rating, Ryegrass, Italian” value ([10]; 500 g ai/ha) was 20 and the “Plant response rating, Foxtail, Giant” value ([11]; 125 g ai/ha) was 80. The “Plant response rating, Foxtail, Giant” value ([11]; 500 g ai/ha) was 80, the “Plant response rating, Pigweed” value ([12]; 125 g ai/ha) was 0 and the “Plant response rating, Pigweed” value ([12]; 500 g ai/ha) was 0. For the same compound, the “Plant response rating, Wheat” value ([13]; 125 g ai/ha) was 20, the “Plant response rating, Wheat” value ([13]; 500 g ai/ha) was 20 and the “Plant response rating, Corn” value ([14]; 125 g ai/ha) was 0. The “Plant response rating, Corn” value ([14]; 500 g ai/ha) was 0, the “Plant response rating, Blackgrass” value ([15]; 125 g ai/ha) was 30 and the “Plant response rating, Blackgrass” value ([15]; 500 g ai/ha) was 30. The “Plant response rating, Galium” value ([16]; 125 g ai/ha) was 20, the “Plant response rating, Galium” value ([16]; 500 g ai/ha) was 20 and the Plant response rating [17] was 0. The Plant response rating [18] was 0, the Plant response rating [19] was 40 and the Plant response rating [20] was 35.
